According to patent US20090312356A1, “NICOTINIC AGONISTS SELECTIVE FOR THE ALPHA7 RECEPTOR SUBTYPE, THE PROCESS FOR THE PREPARATION THEREOF AND PHARMACEUTICAL CO[…]” (priority 2006, published 2009):

Columns and labels:
human α7 (hα7) receptors = molecular target: T1, human α7 (hα7) receptors (Homo sapiens, UniProt P36544); experiment: whole cell patch-clamp electrophysiological recordings, hα7-expressing GH4C1 cells; assay type: cell-based; conditions: 50 nM
T1 construct: expressed in transfected cells
T1 sequence (P36544 23-502): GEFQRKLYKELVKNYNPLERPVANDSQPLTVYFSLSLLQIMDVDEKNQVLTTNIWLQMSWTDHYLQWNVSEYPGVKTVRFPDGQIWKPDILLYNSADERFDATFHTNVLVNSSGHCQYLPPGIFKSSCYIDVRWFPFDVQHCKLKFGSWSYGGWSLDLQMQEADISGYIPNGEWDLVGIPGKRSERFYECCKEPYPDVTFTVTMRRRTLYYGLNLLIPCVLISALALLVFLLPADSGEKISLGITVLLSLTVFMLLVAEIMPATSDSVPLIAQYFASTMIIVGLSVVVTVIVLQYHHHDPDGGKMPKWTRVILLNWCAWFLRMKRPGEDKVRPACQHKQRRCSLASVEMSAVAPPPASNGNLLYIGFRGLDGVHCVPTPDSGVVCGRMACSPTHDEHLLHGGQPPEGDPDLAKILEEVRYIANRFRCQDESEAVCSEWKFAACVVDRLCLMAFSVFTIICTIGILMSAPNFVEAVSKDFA
Method: α7 Subtype: The human α7 (hα7) receptors were stably expressed in transfected GH4C1 and grown in the presence of geneticin (G418 sulfate, 500 μg/mL) as previously described.^31

| melting point | SMILES | effect on acetylcholine-induced hα7 current (human α7 (hα7) receptors) |
| --- | --- | --- |
| > 50 °C | c1ccc(COC2=NOC3(C2)CN2CCC3CC2)cc1 (racemic) | – |
| 203 to 207 °C | BrC1=NN(c2ccccc2)C2(C1)CN1CCC2CC1 (racemic) | – |
| 182 to 183 °C | CN1OC2(CC1=O)CN1CCC2CC1 (racemic) | – |
| – | CCN1C[C@]2(COC(=O)c3ccccc3N3C(=O)C[C@H](C)C3=O)CC[C@H](OC)[C@@]34[C@@H]5C[C@H]6[C@H](OC)[C@@H]5[C@](O)(C[C@@H]6OC)[C@@](O)([C@@H](OC)[C@H]23)[C@@H]14 [methyllycaconitine] | blocked |
